Key:
[1] = Lipid–water partition coefficient (log p); type: physicochemical
Source text: (§1) Drug in vitro experiment was one of the basic contents to evaluate drugs activity, and it was a necessary approach to research drugs. Drugs’ efficacy was often affected by some physical and chemical properties of compounds, such as lipid–water partition coefficient (log p), and dissociation degree (pKa). […] In Table 1, we could find that target compounds were fat-soluble. The fat-soluble compounds were favourable for drugs absorption, and drugs were easy to enter the cells. […] The pKa will affect the absorption and delivery of the drugs, different environmental (acid and alkalinity) medicine may be different, sometimes exists in the form of ions, sometimes exists in the form of molecules. Usually in the form of ion drugs has no effect. Therefore, it was necessary to study the dissociation degree (pKa) of drugs to study the pharmacodynamics. […] After the physical and chemical properties were studied, the biological activity was studied. […] After that, the target compounds 6a, 6e, 6f, 6g and 6i had good biological activity and were preliminarily screened out for further study on PPARγ receptor agonist activity (Figure 5).

PPARγ = biological target: T1, PPARγ (Homo sapiens, UniProt P37231); assay: In vitro activation of PPARγ (cells containing PPAR, EC50); type: cell-based; conditions: n ≥ 8; 24 h; read-out: EC50 ± SD PPARγ
T1 construct: expressed in transfected cells
T1 sequence (P37231 1-505): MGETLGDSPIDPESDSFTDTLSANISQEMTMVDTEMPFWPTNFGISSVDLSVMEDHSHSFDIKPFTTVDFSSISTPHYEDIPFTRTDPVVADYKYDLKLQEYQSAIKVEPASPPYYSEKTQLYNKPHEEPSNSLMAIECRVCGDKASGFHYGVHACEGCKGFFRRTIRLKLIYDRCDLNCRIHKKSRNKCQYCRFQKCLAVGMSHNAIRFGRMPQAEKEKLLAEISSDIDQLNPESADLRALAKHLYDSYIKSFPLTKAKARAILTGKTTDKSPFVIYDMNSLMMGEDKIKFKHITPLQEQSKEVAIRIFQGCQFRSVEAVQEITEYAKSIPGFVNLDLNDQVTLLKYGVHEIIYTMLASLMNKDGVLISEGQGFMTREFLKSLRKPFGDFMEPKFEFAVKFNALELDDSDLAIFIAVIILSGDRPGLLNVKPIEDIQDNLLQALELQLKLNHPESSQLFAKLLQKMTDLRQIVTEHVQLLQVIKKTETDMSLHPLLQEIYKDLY
Description: (§2) According to the literature, the cells containing PPAR (α, β and γ) were obtained and transfected into 96-well plates the day before for cells culture. Transfection was performed according to the instructions of human PPAR enzyme-linked immunoassay. […] After 24 h, the drugs were added, and 20 μl of MTT was added to each well for another 6 h, and the cell liquid was collected by removing the culture medium, and 150 μl of DMSO was added to each hole. And the absorbance value (A) of each hole was measured under the wavelength of 460 nm.

healthy mice [2] = assay: Oral glucose tolerance test; type: in vivo
Description: In vivo experiments, glucose tolerance test, insulin tolerance test, cell survival experiment and acute toxicity were used as the test indicators (Tables 2, [3] and [4]). In Table 2, we chose dose 10 mg kg^−1 d^−1 and used oral administration. […] The mice were given the drug for 10 d, blood was collected from the tail vein of the mice before and after the sugar load for 1 h and 2 h, and the blood glucose level of the mice before and after the sugar load was measured by the glucometer.
(§3) (1) Glucose tolerance test: The healthy mice (20 ± 2 g) were selected. After 1 week of acclimation, mice with no body surface damage, good general condition and flexible reaction were selected for the experiment. The test compounds were dissolved with DMSO, and were given a dose volume of 0.2 ml 10 g^−1, and a dose of 10 mg kg^−1, and given by gavage (oral) once a day. […] The mice were given the drug for 10 d, and after the last dose, the mice fasted for 12 h. The next day, blood was collected from the tail vein of the mice before and after the sugar load for 1 h and 2 h, and the blood glucose level of the mice before and after the sugar load was measured by the glucometer. […] The 12 h of fasting after the last administration, blood was taken from the orbital venous plexus (used to measure the blood glucose level after fasting). Each group was immediately given a subcutaneous injection of 0.2 μg kg^−1 of insulin. After 1 h and 2 h of injection, blood was taken again. (3) Cell survival experiment: The HUVEC cells were inoculated on the 96-well plate at the initial concentration of 3 × 10^3 cells/holes, and 100 μl RPMI 1640 medium were added to each hole. At 5% CO2 and 37 °C cell cultivation in 24 h, every pore solution in different concentrations. […] And determine the hole under 460 nm wavelength absorbance value (A).

PPARα = biological target: T2, PPARα (Homo sapiens, UniProt Q07869); assay: In vitro activation of PPARα (cells containing PPAR, EC50); type: cell-based; conditions: n ≥ 8, 24 h; for EC50: read-out: EC50 ± SD PPARα
T2 construct: expressed in transfected cells
T2 sequence (Q07869 1-468): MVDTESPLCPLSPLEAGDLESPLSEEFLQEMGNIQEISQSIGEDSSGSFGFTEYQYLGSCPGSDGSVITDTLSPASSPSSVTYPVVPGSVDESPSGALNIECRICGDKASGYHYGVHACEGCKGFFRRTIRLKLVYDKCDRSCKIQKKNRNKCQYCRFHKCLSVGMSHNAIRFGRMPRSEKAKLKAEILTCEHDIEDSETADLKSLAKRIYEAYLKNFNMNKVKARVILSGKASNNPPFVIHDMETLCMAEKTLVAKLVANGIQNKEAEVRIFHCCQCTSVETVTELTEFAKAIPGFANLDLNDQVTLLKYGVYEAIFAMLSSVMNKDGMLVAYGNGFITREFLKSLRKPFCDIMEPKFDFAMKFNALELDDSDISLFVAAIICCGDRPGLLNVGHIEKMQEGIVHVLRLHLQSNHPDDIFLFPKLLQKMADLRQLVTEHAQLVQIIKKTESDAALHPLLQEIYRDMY
Description: as §2

healthy mice [3] = assay: Insulin tolerance test (blood glucose under insulin load); type: in vivo
Description: as §3

[4] = Acute toxicity test (LD50); type: in vivo; conditions: oral administration; n ≥ 3
HUVEC cells = assay: Cell survival experiment (cytotoxicity); type: cell-based; conditions: for Cell survival rate: HUVEC cells
Description: as §3

[5] = Dissociation degree (pKa); type: physicochemical
Source text: as §1

PPARβ = biological target: T3, PPARβ (Homo sapiens, UniProt Q03181); assay: In vitro activation of PPARβ (cells containing PPAR, EC50); type: cell-based; conditions: n ≥ 8; 24 h; read-out: EC50 ± SD PPARβ
T3 construct: expressed in transfected cells
T3 sequence (Q03181 1-441): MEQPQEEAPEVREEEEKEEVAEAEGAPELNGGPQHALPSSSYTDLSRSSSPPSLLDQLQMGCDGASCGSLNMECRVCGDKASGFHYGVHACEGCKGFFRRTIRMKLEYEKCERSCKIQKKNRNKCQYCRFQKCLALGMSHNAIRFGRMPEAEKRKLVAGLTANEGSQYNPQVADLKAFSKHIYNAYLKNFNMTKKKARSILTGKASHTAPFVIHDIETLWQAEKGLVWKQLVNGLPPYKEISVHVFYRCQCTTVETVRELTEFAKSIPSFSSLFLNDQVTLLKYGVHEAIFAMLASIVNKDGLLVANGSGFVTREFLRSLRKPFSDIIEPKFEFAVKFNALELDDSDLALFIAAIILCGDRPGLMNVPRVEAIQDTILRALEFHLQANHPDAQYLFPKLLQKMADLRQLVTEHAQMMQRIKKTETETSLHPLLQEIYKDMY
Description: as §2

Compound | logP [1] | EC50 (PPARγ) | pKa [5] | EC50 (PPARβ) | EC50 (PPARα) | further results
O=C1NC(=O)C(Cc2ccc(OCCNC(=O)c3ccccc3)cc2)S1 (stereo not shown) [Compound 6a, N-(2–(4-((2,4-dioxothiazolidin-5-yl)methyl)phenoxy)ethyl) benzamide] | 2.68 | 0.08 ± 0.02 µM | 10.4 |  |  | Blood glucose levels 1 h (healthy mice [2]; 10 mg kg^−1 d^−1 oral for 10 d, 1 h after sugar load): 6.342 ± 2.011 mmol/L; Blood glucose levels 2 h (healthy mice [2]; 10 mg kg^−1 d^−1 oral for 10 d, 2 h after sugar load): 3.368 ± 1.341 mmol/L; Blood glucose levels 0 h (healthy mice [2]; 10 mg kg^−1 d^−1 oral for 10 d, fasted 12 h, before sugar load): 3.376 ± 0.361 mmol/L; Effect in glucose tolerance test (in words) (healthy mice [2]; 10 mg kg^−1 d^−1 oral, 10 d): good resistance activation to glucose; EC50 ± SD PPARα (PPARα): ia^b; Effect in insulin tolerance test (in words) (healthy mice [3]; 10 mg kg^−1 d^−1): good resistance activation to insulin; Blood glucose levels 1 h (healthy mice [3]; 10 mg kg^−1 d^−1 for 15 d, 1 h after s.c. insulin 0.2 μg kg^−1): 1.801 ± 0.531 mmol/L; Blood glucose levels 2 h (healthy mice [3]; 10 mg kg^−1 d^−1 for 15 d, 2 h after s.c. insulin 0.2 μg kg^−1): 2.498 ± 1.136 mmol/L; Blood glucose levels 0 h (healthy mice [3]; 10 mg kg^−1 d^−1 for 15 d, fasted 12 h, before insulin): 5.644 ± 1.035 mmol/L; LD50 ± SD [4]: 2313.6 ± 1.26 mg/kg; Cytotoxic effect (in words) (HUVEC cells; 10^−3–10^−2 mol L^−1): no obvious cytotoxic effect; Cell survival rate (HUVEC cells; 10^−2 mol l^−1): 93.1 ± 1.21%; Cell survival rate (HUVEC cells; 10^−3 mol l^−1): 98.1 ± 0.28%; Cell survival rate (HUVEC cells; 10^−4 mol l^−1): 99.3 ± 0.26%; Cell survival rate (HUVEC cells; 10^−5 mol l^−1): 99.9 ± 0.11%; Cell survival rate (HUVEC cells; 10^−6 mol l^−1): 100%
O=C1NC(=O)C(Cc2ccc(OCCNC(=O)c3ccccc3)cn2)S1 (stereo not shown) [Compound 6b, N-(2-((6-((2,4-dioxothiazolidin-5-yl)methyl)pyridin-3-yl)oxy)ethyl) benzamide] | 1.77 | 1.29 ± 0.53 µM | 10.4 | 9.18 ± 0.89 µM | 12.9 ± 1.29 µM | 
O=C1NC(=O)C(Cc2ccc(OCCNC(=O)c3ccccn3)cn2)S1 (stereo not shown) [Compound 6d, N-(2-((6-((2,4-dioxothiazolidin-5-yl)methyl)pyridin-3-yl)oxy)ethyl) picolinamide] | 1.38 | 3.22 ± 0.65 µM | 9.78 | 12.2 ± 1.21 µM |  | 

Further lines, with some results ahead:

logP [1] | EC50 (PPARγ) | pKa [5] | EC50 (PPARβ) | EC50 (PPARα) | Compound | further results
1.45 | 2.68 ± 0.46 µM | 8.58 | 10.1 ± 1.12 µM | 9.34 ± 1.01 µM | O=C1NC(=O)C(Cc2ccc(OCCNC(=O)c3ccc(O)cn3)cn2)S1 (stereo not shown) [Compound 6l, N-(2-((6-((2,4-dioxothiazolidin-5-yl)methyl)pyridin-3-yl)oxy)ethyl)-5-hydroxypicolinamide] | 
2.11 | 0.34 ± 0.15 µM | 9.01 | 14.5 ± 1.2 µM |  | O=C1NC(=O)C(Cc2ccc(OCCNC(=O)c3ccc(O)cc3)cn2)S1 (stereo not shown) [Compound 6j, N-(2-((6-((2,4-dioxothiazolidin-5-yl)methyl)pyridin-3-yl)oxy)ethyl)-4-hydroxybenzamide] | 
